Results published in patent US12252491B2, “IL-17A inhibitors” (Eli Lilly and Company, priority 2019, dated 2025).

How the values were obtained:
[1] = Mouse oral bioavailability; format: in vivo; details: whole blood (dried blood spot), male mice, IV bolus 1 mg/kg vs oral 3 mg/kg, 8-hour AUC, read-out: % F (mouse)
Procedure: Oral bioavailability (% F) for compounds of the invention may be determined in mice by determination of an 8-hour blood plasma AUC (nM*hr) following intravenous and oral administration performed essentially as follows. Male mice (n=3) are administered compound via intravenous (IV) bolus (1 mg/kg) or orally (3 mg/kg). For intravenous administration, a vehicle of 20% w/v capsitol in NaPO4 buffer (25 mM) adjusted to pH 2 in a volume of 5 mL/kg is used. For oral administration, a vehicle of HEC/P80/AF/PW (probe sonicated to afford a homogeneous suspension) in a volume of 10 mL/kg is used. Blood is sampled by saphenous bleeding using K2 EDTA as anticoagulant. Approximately 20 μL of blood (or enough for 1 spot) is collected via a capillary tube and transferred to a card as a dry blood spot. Cards are allowed to dry for at least 2 hours before shipping for analysis. Blood concentration of compounds for each mouse is measured by liquid chromatography/tandem mass spectrometry at time points of 0.08 (IV only), 0.25, 0.5, 0.75, 2, 4, and 8 hours. Oral bioavailability (% F) is determined via the following equation: [% F=(AUC/Dose)PO/(AUC/Dose)IV].

[2] = target: binding of IL-17A to IL-17RA (Homo sapiens (Human), UniProt Q16552); assay: IL-17A:IL-17RA AlphaLISA
Chain of binding of IL-17A to IL-17RA (Q16552 other isoform, or with tags, fused parts or gaps): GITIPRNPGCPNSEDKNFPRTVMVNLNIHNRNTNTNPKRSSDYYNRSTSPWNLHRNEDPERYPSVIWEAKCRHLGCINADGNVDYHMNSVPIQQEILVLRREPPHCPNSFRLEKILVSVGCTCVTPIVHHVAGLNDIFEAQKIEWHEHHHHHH
Procedure: The ability of compounds to inhibit the binding of IL-17A to IL-17RA may be assessed with an AlphaLISA assay.
To assay the compounds of the present invention, 0.1 μL of a test compound stock is serially diluted in 100% DMSO using an Echo Acoustic Liquid Handler (LabCyte Sunnydale, Calif.) in 384 well proxiplates (Perkin Elmer). A 5 μL addition of IL-17RA-FLAG is added to the plate, followed by the addition of 5 μL Avi-tagged IL-17A-His to provide a final concentration of 2 nM of IL-17RA and IL-17A, respectively. The assay is carried out in 20 mM HEPES, 150 mM NaCl, 0.05% Tween-20, 0.1% Human Serum Albumin, pH 7 and 1% DMSO. The assay mixture is allowed to incubate at room temperature for 2 hours. After the 2 hour incubation, 10 μL of streptavidin donor beads (20 μg/ml final) and anti-FLAG acceptor beads (20 μg/ml final) are added to the plate. The plate is allowed to incubate for one hour at room temp, then is read on the Envision (Perkin Elmer). The relative IC50 values are determined using a four parameter fit as shown in equation 1. In this equation, bottom and top are defined as the plateaus of the curve, and H is the Hill Slope.

human IL-17A = human IL-17A (Homo sapiens (Human), UniProt Q16552)
Chain of human IL-17A (Q16552 20-155): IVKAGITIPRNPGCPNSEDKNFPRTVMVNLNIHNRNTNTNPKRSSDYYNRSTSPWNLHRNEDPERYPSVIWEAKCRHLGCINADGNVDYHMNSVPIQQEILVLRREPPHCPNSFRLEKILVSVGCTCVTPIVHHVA
Procedure: The ability of compounds to neutralize the activity of IL-17A may be assessed with a cell-based human IL-17A neutralization assay conducted essentially as follows. […] After 48 hours, CXCL1/GROα in the culture media is measured using a commercial ELISA kit (#DY275; R&D Systems). Medium alone treatments are included in every experiment to assess the basal levels of CXCL1/GROα. Percent inhibition is calculated using the following equation:

| Structure (SMILES) | bioavailability [1] [%] | IC50 [2] [nM] | IC50 (human IL-17A) [nM] |
| --- | --- | --- | --- |
| CC(C)c1nocc1C(=O)N[C@H](c1cn2ncc(CN3C[C@@H](C(F)(F)F)NC3=O)cc2n1)C1CCC(F)(F)CC1 [Example 16, N—[(S)-(4,4-Difluorocyclohexyl)-[7-[[(4S)-2-oxo-4-(trifluoromethyl)imidazolidin-1-yl]methyl]imidazo[1,2-b]pyridazin-2-yl]methyl]-3-isopropyl-isoxazole-4-carboxamide] | – | 19.3 | 10.8 |
| CC1(c2nocc2C(=O)N[C@H](c2cn3ncc(CN4C[C@@H](C(F)(F)F)NC4=O)cc3n2)C2CCC(F)(F)CC2)CC1 [Example 14, N—[(S)-(4,4-Difluorocyclohexyl)-[7-[[(4S)-2-oxo-4-(trifluoromethyl)imidazolidin-1-yl]methyl]imidazo[1,2-b]pyridazin-2-yl]methyl]-3-(1-methylcyclopropyl)isoxazole-4-carboxamide] | – | 36.1 | 33.3 |
| CC(C)(F)c1nocc1C(=O)N[C@H](c1cn2ncc(CN3C[C@@H](C(F)(F)F)NC3=O)cc2n1)C1CCC(F)(F)CC1 [Example 15, N—[(S)-(4,4-Difluorocyclohexyl)-[7-[[(4S)-2-oxo-4-(trifluoromethyl)imidazolidin-1-yl]methyl]imidazo[1,2-b]pyridazin-2-yl]methyl]-3-(1-fluoro-1-methyl-ethyl)isoxazole-4-carboxamide] | – | 51.9 | 82.9 |
| CC(F)(F)c1nocc1C(=O)N[C@H](c1cn2ncc(CN3C[C@@H](C(F)(F)F)NC3=O)cc2n1)C1CCC(F)(F)CC1 [Example 5, N—[(S)-(4,4-Difluorocyclohexyl)-[7-[[(4S)-2-oxo-4-(trifluoromethyl)imidazolidin-1-yl]methyl]imidazo[1,2-b]pyridazin-2-yl]methyl]-3-(1,1-difluoroethyl)isoxazole-4-carboxamide] | 49 | 20 | 104 |
| O=C(N[C@H](c1cn2ncc(CN3C[C@@H](C(F)(F)F)NC3=O)cc2n1)C1CCC(F)(F)CC1)c1conc1CF [Example 7, N—[(S)-(4,4-Difluorocyclohexyl)-[7-[[(4S)-2-oxo-4-(trifluoromethyl)imidazolidin-1-yl]methyl]imidazo[1,2-b]pyridazin-2-yl]methyl]-3-(fluoromethyl)isoxazole-4-carboxamide] | 47 | 37.8 | 128 |
| O=C(N[C@H](c1cn2ncc(CN3C[C@@H](C(F)(F)F)NC3=O)cc2n1)C1CCC(F)(F)CC1)c1nonc1C1CC1 [Example 19, 4-Cyclopropyl-N—[(S)-(4,4-difluorocyclohexyl)-[7-[[(4S)-2-oxo-4-(trifluoromethyl)imidazolidin-1-yl]methyl]imidazo[1,2-b]pyridazin-2-yl]methyl]-1,2,5-oxadiazole-3-carboxamide] | 47 | – | – |
| O=C(N[C@H](c1cn2ncc(CN3C[C@@H](C(F)(F)F)NC3=O)cc2n1)C1CCC(F)(F)CC1)c1conc1C(F)(F)C1CC1 [Example 13, 3-[Cyclopropyl(difluoro)methyl]-N—[(S)-(4,4-difluorocyclohexyl)-[7-[[(4S)-2-oxo-4-(trifluoromethyl)imidazolidin-1-yl]methyl]imidazo[1,2-b]pyridazin-2-yl]methyl]isoxazole-4-carboxamide] | – | 47.1 | 53.1 |
| O=C(N[C@H](c1cn2ncc(CN3C[C@@H](C(F)(F)F)NC3=O)cc2n1)C1CCC(F)(F)CC1)c1conc1C1CC(F)(F)C1 [Example 10, 3-(3,3-Difluorocyclobutyl)-N—[(S)-(4,4-difluorocyclohexyl)-[7-[[(4S)-2-oxo-4-(trifluoromethyl)imidazolidin-1-yl]methyl]imidazo[1,2-b]pyridazin-2-yl]methyl]isoxazole-4-carboxamide] | – | 47 | 48.9 |

Now from value to compound:

| bioavailability [1] [%] | IC50 [2] [nM] | IC50 (human IL-17A) [nM] | Structure (SMILES) |
| --- | --- | --- | --- |
| 59 | 13 ± 2 | 93.7 | O=C(N[C@H](c1cn2ncc(CN3C[C@@H](C(F)(F)F)NC3=O)cc2n1)C1CCC(F)(F)CC1)c1conc1C(F)F [Example 4, N—[(S)-(4,4-Difluorocyclohexyl)-[7-[[(4S)-2-oxo-4-(trifluoromethyl)imidazolidin-1-yl]methyl]imidazo[1,2-b]pyridazin-2-yl]methyl]-3-(difluoromethyl)isoxazole-4-carboxamide] |
| – | < 9.45 | 14.9 | O=C(N[C@H](c1cn2ncc(CN3C[C@@H](C(F)(F)F)NC3=O)cc2n1)C1CCC(F)(F)CC1)c1nonc1CC(F)(F)F [Example 23, N—[(S)-(4,4-difluorocyclohexyl)-[7-[[(4S)-2-oxo-4-(trifluoromethyl)imidazolidin-1-yl]methyl]imidazo[1,2-b]pyridazin-2-yl]methyl]-4-(2,2,2-trifluoroethyl)-1,2,5-oxadiazole-3-carboxamide] |
| – | 15.5 | 52.4 | O=C(N[C@H](c1cn2ncc(CN3C[C@@H](C(F)(F)F)NC3=O)cc2n1)C1CCC(F)(F)CC1)c1conc1CC(F)F [Example 8, N—[(S)-(4,4-Difluorocyclohexyl)-[7-[[(4S)-2-oxo-4-(trifluoromethyl)imidazolidin-1-yl]methyl]imidazo[1,2-b]pyridazin-2-yl]methyl]-3-(2,2-difluoroethyl)isoxazole-4-carboxamide] |
| 28 | 15.2 ± 2.5 | 53.3 ± 26.4 | CCc1nocc1C(=O)N[C@H](c1cn2ncc(CN3C[C@@H](C(F)(F)F)NC3=O)cc2n1)C1CCC(F)(F)CC1 [Example 2, N—[(S)-(4,4-Difluorocyclohexyl)-[7-[[(4S)-2-oxo-4-(trifluoromethyl)imidazolidin-1-yl]methyl]imidazo[1,2-b]pyridazin-2-yl]methyl]-3-ethyl-isoxazole-4-carboxamide] |
| 55 | < 9.45 | 148 | O=C(N[C@H](c1cn2ncc(CN3C[C@@H](C(F)(F)F)NC3=O)cc2n1)C1CCC(F)(F)CC1)c1conc1C(F)(F)F [Example 11, N—[(S)-(4,4-Difluorocyclohexyl)-[7-[[(4S)-2-oxo-4-(trifluoromethyl)imidazolidin-1-yl]methyl]imidazo[1,2-b]pyridazin-2-yl]methyl]-3-(trifluoromethyl)isoxazole-4-carboxamide] |
| 34 | 15.7 ± 7 | 51.6 ± 23.5 | O=C(N[C@H](c1cn2ncc(CN3C[C@@H](C(F)(F)F)NC3=O)cc2n1)C1CCC(F)(F)CC1)c1conc1C1CC1 [Example 1, 3-Cyclopropyl-N—[(S)-(4,4-difluorocyclohexyl)-[7-[[(4S)-2-oxo-4-(trifluoromethyl)imidazolidin-1-yl]methyl]imidazo[1,2-b]pyridazin-2-yl]methyl]isoxazole-4-carboxamide] |
| – | < 9.45 | 15.9 | CCc1nonc1C(=O)N[C@H](c1cn2ncc(CN3C[C@@H](C(F)(F)F)NC3=O)cc2n1)C1CCC(F)(F)CC1 [Example 17, N—[(S)-(4,4-Difluorocyclohexyl)-[7-[[(4S)-2-oxo-4-(trifluoromethyl)imidazolidin-1-yl]methyl]imidazo[1,2-b]pyridazin-2-yl]methyl]-4-ethyl-1,2,5-oxadiazole-3-carboxamide] |
| 75 | < 9.45 | 94.2 | Cc1nonc1C(=O)N[C@H](c1cn2ncc(CN3C[C@@H](C(F)(F)F)NC3=O)cc2n1)C1CCC(F)(F)CC1 [Example 6, N—[(S)-(4,4-Difluorocyclohexyl)-[7-[[(4S)-2-oxo-4-(trifluoromethyl)imidazolidin-1-yl]methyl]imidazo[1,2-b]pyridazin-2-yl]methyl]-4-methyl-1,2,5-oxadiazole-3-carboxamide] |
| – | < 9.45 | 22.7 | O=C(N[C@H](c1cn2ncc(CN3C[C@@H](C(F)(F)F)NC3=O)cc2n1)C1CCC(F)(F)CC1)c1nonc1C(F)F [Example 18, N—[(S)-(4,4-Difluorocyclohexyl)-[7-[[(4S)-2-oxo-4-(trifluoromethyl)imidazolidin-1-yl]methyl]imidazo[1,2-b]pyridazin-2-yl]methyl]-4-(difluoromethyl)-1,2,5-oxadiazole-3-carboxamide] |
| – | 11.4 | 83.4 | COc1nonc1C(=O)N[C@H](c1cn2ncc(CN3C[C@@H](C(F)(F)F)NC3=O)cc2n1)C1CCC(F)(F)CC1 [Example 22, N—[(S)-(4,4-Difluorocyclohexyl)-[7-[[(4S)-2-oxo-4-(trifluoromethyl)imidazolidin-1-yl]methyl]imidazo[1,2-b]pyridazin-2-yl]methyl]-4-methoxy-1,2,5-oxadiazole-3-carboxamide] |
| – | 18.1 | 107 | O=C(N[C@H](c1cn2ncc(CN3C[C@@H](C(F)(F)F)NC3=O)cc2n1)C1CCC(F)(F)CC1)c1conc1C1(F)CC1 [Example 12, N—[(S)-(4,4-Difluorocyclohexyl)-[7-[[(4S)-2-oxo-4-(trifluoromethyl)imidazolidin-1-yl]methyl]imidazo[1,2-b]pyridazin-2-yl]methyl]-3-(1-fluorocyclopropyl)isoxazole-4-carboxamide] |
